Reference: US20100298137A1, “ACTIVE INGREDIENT COMBINATIONS WITH INSECTICIDAL PROPERTIES” (BAYER CROPSCIENCE AG, priority 2006, published 2010)

What was measured:
Myzus persicae = Myzus persicae test (cabbage leaves dipped into the preparation of active compound); format: in vivo; conditions: leaf dip
Text: (§1) The expected activity for a given combination of two active compounds can be calculated according to S. R. Colby, Weeds 15 (1967), 20-22 as follows:
(§2) If • X is the kill rate, expressed in % of the untreated control, when active compound A is applied at an application rate of m g/ha or at a concentration of m ppm, • Y is the kill rate, expressed in % of the untreated control, when active compound B is applied at an application rate of n g/ha or at a concentration of n ppm and • E is the kill rate, expressed in % of the untreated control, when active compounds A and B is applied at application rates of m and n g/ha or at a concentration of m and n ppm, then
(§3) If the actual kill rate is greater than calculated, the kill of the combination is superadditive, i.e. there is a synergistic effect. In this case, the actual observed kill rate has to be greater than the value for the expected kill rate (E) calculated from the formula given above.
(§4) To produce a suitable preparation of active compound, 1 part by weight of active compound is mixed with the stated amounts of solvent and emulsifier, and the concentrate is diluted with emulsifier-containing water to the desired concentration.
Cabbage leaves (Brassica oleracea) which are heavily infested by the green peach aphid (Myzus persicae) are treated by being dipped into the preparation of active compound of the desired concentration.
(§5) After the desired period of time, the kill in % is determined. 100% means that all aphids have been killed; 0% means that none of the aphids have been killed. The kill rates determined are entered into the Colby formula (see sheet 1).

Aphis gossypii = Aphis gossypii test (cotton leaves dipped into the preparation of active compound); format: in vivo; conditions: leaf dip
Text: as §1, §2, §3, §4
Cotton leaves (Gossypium hirsutum) which are heavily infested by the cotton aphid (Aphis gossypii) are treated by being dipped into the preparation of active compound of the desired concentration.
as §5

With `CC(C)N1C(=O)N(c2ccccc2)CS/C1=N\C(C)(C)C` [buprofezin] the “Kill in % after 1 d” value (Myzus persicae; 100 ppm) was 0% and the “Kill in % after 1 d” value (Aphis gossypii; 100 ppm) was 5%.
`CN(Cc1ccc(Cl)nc1)C1=CC(=O)OC1` [compound (Ia)] was tested, and the “Kill in % after 1 d” value (Myzus persicae; 0.16 ppm) was 10%, the “Kill in % after 6 d” value (Myzus persicae; 0.16 ppm) was 0% and the “Kill in % after 1 d” value (Myzus persicae; 0.8 ppm) was 45%. The “Kill in % after 6 d” value (Myzus persicae; 0.8 ppm) was 50%, the “Kill in % after 1 d” value (Aphis gossypii; 0.16 ppm) was 20% and the “Kill in % after 1 d” value (Aphis gossypii; 0.8 ppm) was 55%.
With `O=C1C=C(N(Cc2ccc(Cl)nc2)C2CC2)CO1` [compound (Ib)] the “Kill in % after 6 d” value (Myzus persicae; 0.16 ppm) was 0%, the “Kill in % after 1 d” value (Myzus persicae; 0.8 ppm) was 10% and the “Kill in % after 1 d” value (Myzus persicae; 4 ppm) was 70%. The “Kill in % after 6 d” value (Myzus persicae; 4 ppm) was 33%, the “Kill in % after 6 d” value (Aphis gossypii; 0.16 ppm) was 0% and the “Kill in % after 1 d” value (Aphis gossypii; 0.8 ppm) was 45%. For the same molecule, the “Kill in % after 6 d” value (Aphis gossypii; 0.8 ppm) was 50% and the “Kill in % after 1 d” value (Aphis gossypii; 4 ppm) was 80%.
With `CC[S+]([O-])c1c(C#N)nn(-c2c(Cl)cc(C(F)(F)F)cc2Cl)c1N` (centres unmarked) [ethiprole] the “Kill in % after 6 d” value (Aphis gossypii; 0.8 ppm) was 30%.
For `N#Cc1nn(-c2c(Cl)cc(C(F)(F)F)cc2Cl)c(N)c1[S+]([O-])C(F)(F)F` (centres unmarked) [fipronil], the “Kill in % after 6 d” value (Myzus persicae; 4 ppm) was 0% and the “Kill in % after 6 d” value (Aphis gossypii; 20 ppm) was 70%.
With `Cc1cc(C(F)(C(F)(F)F)C(F)(F)F)ccc1NC(=O)c1cccc(I)c1C(=O)NC(C)(C)CS(C)(=O)=O` [flubendiamid, flubendiamide] the “Kill in % after 6 d” value (Myzus persicae; 100 ppm) was 6%.
For `COC(=O)N(C(=O)N1COC2(C(=O)OC)Cc3cc(Cl)ccc3C2=N1)c1ccc(OC(F)(F)F)cc1` (centres unmarked) [indoxacarb], the “Kill in % after 6 d” value (Myzus persicae; 100 ppm) was 20% and the “Kill in % after 1 d” value (Aphis gossypii; 100 ppm) was 0%.
`COc1cccc(C(=O)NN(C(=O)c2cc(C)cc(C)c2)C(C)(C)C)c1C` [methoxyfenozide] was tested, and the “Kill in % after 1 d” value (Myzus persicae; 100 ppm) was 0% and the “Kill in % after 1 d” value (Aphis gossypii; 100 ppm) was 0%.
In the case of `FC(F)(F)c1ccc(OCCCOc2c(Cl)cc(OCC=C(Cl)Cl)cc2Cl)nc1` [pyridalyl], the “Kill in % after 6 d” value (Myzus persicae; 100 ppm) is reported as 0% and the “Kill in % after 1 d” value (Aphis gossypii; 100 ppm) is reported as 5%.
`CNC(=O)c1cc(Cl)cc(C)c1NC(=O)c1cc(Br)nn1-c1ncccc1Cl` [rynaxapyr, 3-bromo-N-{4-chloro-2-methyl-6-[(methylamino)carbonyl]phenyl}-1-(3-chloropyridin-2-yl)-1H-pyrazole-5-carboxamide] was tested, and the “Kill in % after 1 d” value (Myzus persicae; 4 ppm) was 30% and the “Kill in % after 6 d” value (Aphis gossypii; 0.8 ppm) was 15%.
For abamectin, the “Kill in % after 1 d” value (Myzus persicae; 100 ppm) was 55%.
emamectin benzoate was tested, and the “Kill in % after 1 d” value (Aphis gossypii; 20 ppm) was 10%.
spinosad was tested, and the “Kill in % after 1 d” value (Myzus persicae; 100 ppm) was 5% and the “Kill in % after 6 d” value (Myzus persicae; 100 ppm) was 5%.
